From paper PMC12285096, “Tirzepatide mitigates Stroke-Induced Blood-Brain barrier disruption by modulating Claudin-1 and C/EBP-α pathways” (Molecular Medicine, 2025)

How the values were obtained:
in vivo = conditions: mouse, ip, 10 nmol/kg
Description: TZP concentrations were measured in plasma and brain from Sham, TZP, MCAO, and MCAO + TZP groups (n = 6 per group) after 8 weeks of treatment (TZP: 10 nmol/kg, saline: 0.1 mL, i.p., weekly). At 24 h post-final dose, mice were anesthetized (xylazine 8 mg/kg, ketamine 140 mg/kg, i.p.). Plasma was collected via cardiac puncture (0.5 mL, heparinized tubes) and centrifuged (3,000 × g, 10 min, 4 °C). The right cerebral hemisphere was harvested, rinsed in cold saline, weighed, and homogenized in 1 mL PBS with 1% protease inhibitor. Homogenates were centrifuged (10,000 × g, 15 min, 4 °C). TZP was quantified by LC-MS/MS using a Shimadzu LC-20AD system and AB Sciex QTRAP 5500. Samples were diluted 1:10 in acetonitrile with internal standard (semaglutide-d6, 10 ng/mL), separated on a C18 column (2.1 × 100 mm, 1.8 μm), and detected via multiple reaction monitoring (MRM). Calibration curves (0.1–100 ng/mL, r² > 0.99) ensured linearity. Kp, brain was calculated as [TZP]brain (ng/mL, converted from ng/g)/[TZP]plasma (ng/mL). Sham and MCAO groups (no TZP) served as controls. Liraglutide’s Kp, brain was cited from the literature (Rhea et al. [2024]).

[1] = test system: blood-brain barrier of MCAO mice; test: BBB permeability assay, 14C-sucrose influx in mice; assay type: in vivo, mouse; conditions: for BBB permeability (14C-sucrose), relative to Sham = 100: C/EBP-α experiment, MCAO 272.1%, Fig. 5B; for 14C-sucrose influx rate (Ki), right cerebral hemisphere: n = 6, mean ± SD
From the text: To evaluate the therapeutic function of TZP against IS, four groups were divided: Sham, TZP, MCAO, and MCAO + TZP groups. In the Sham and MCAO groups, normal saline was intraperitoneally administered to sham-operated and MCAO-operated wide-type (WT) mice once a week for 8 weeks, respectively. In the TZP and MCAO + TZP groups, sham-operated and MCAO-operated WT mice were intraperitoneally administered with 10 nmol/kg TZP once a week for 8 weeks, respectively. To confirm the involvement of C/EBPα in the function of TZP, four groups were divided: Sham, MCAO, MCAO + TZP, and MCAO + C/EBP-α-/- + TZP. Administrations in the Sham, MCAO, and MCAO + TZP groups were described above. MCAO-operated C/EBP-α-/- mice in the MCAO + C/EBP-α-/- + TZP group received an intraperitoneal injection of 10 nmol/kg TZP every week for eight weeks. ^14C-sucrose (1 µCi, i.v.) was administered, and brain uptake was measured after 10 min. The influx rate (Ki, µL/g/min) was calculated as [^14C-sucrose]brain (dpm/g)/[^14C-sucrose]plasma (dpm/mL) × time (min).

MCAO mice = test: TTC staining, infarct volume in MCAO mice; assay type: in vivo, mouse; conditions: MCAO + TZP mice, 10 nmol/kg i.p., MCAO mice 38.5 ± 4.2%, mean ± SD, Fig. 1B

## CC[C@H](C)[C@H](NC(=O)[C@H](CC(C)C)NC(=O)[C@H](Cc1c[nH]c2ccccc12)NC(=O)[C@H](CCC(N)=O)NC(=O)[C@@H](NC(=O)[C@H](Cc1ccccc1)NC(=O)[C@H](C)NC(=O)[C@H](CCCCNC(=O)COCCOCCNC(=O)COCCOCCNC(=O)CC[C@H](NC(=O)CCCCCCCCCCCCCCCCCCC(=O)O)C(=O)O)NC(=O)[C@H](CCC(N)=O)NC(=O)[C@H](C)NC(=O)[C@@H](NC(=O)[C@H](CCCCN)NC(=O)[C@H](CC(=O)O)NC(=O)[C@H](CC(C)C)NC(=O)C(C)(C)NC(=O)[C@@H](NC(=O)[C@H](CO)NC(=O)[C@H](Cc1ccc(O)cc1)NC(=O)[C@H](CC(=O)O)NC(=O)[C@H](CO)NC(=O)[C@@H](NC(=O)[C@H](Cc1ccccc1)NC(=O)[C@@H](NC(=O)CNC(=O)[C@H](CCC(=O)O)NC(=O)C(C)(C)NC(=O)[C@@H](N)Cc1ccc(O)cc1)[C@@H](C)O)[C@@H](C)O)[C@@H](C)CC)[C@@H](C)CC)C(C)C)C(=O)N[C@@H](C)C(=O)NCC(=O)NCC(=O)N1CCC[C@H]1C(=O)N[C@@H](CO)C(=O)N[C@@H](CO)C(=O)NCC(=O)N[C@@H](C)C(=O)N1CCC[C@H]1C(=O)N1CCC[C@H]1C(=O)N1CCC[C@H]1C(=O)N[C@@H](CO)C(N)=O [TZP, Tirzepatide]
In vivo; Brain concentration of TZP
  tissue level at time at 24 h: 9.6 ± 1.2 ng/g
In vivo; Plasma concentration of TZP
  level at 24 h: 80.2 ± 10.1 ng/mL
[1]; MCAO + TZP, WT mice
  BBB permeability (14C-sucrose), relative to Sham = 100: 141.9%
[1]; TZP-treated MCAO C/EBP-α-/- mice
  BBB permeability (14C-sucrose), relative to Sham = 100: 205.7%
[1]; MCAO + TZP group (10 nmol/kg i.p. weekly, 8 weeks), MCAO 2.582 ± 0.156, P < 0.005 vs. MCAO
  14C-sucrose influx rate (Ki), right cerebral hemisphere: 1.447 ± 0.103 µL/g/min
[1]; TZP group (sham-operated, 10 nmol/kg i.p. weekly, 8 weeks), Sham 1.00 ± 0.028, P = 0.89 vs. Sham
  14C-sucrose influx rate (Ki), right cerebral hemisphere: 0.995 ± 0.032 µL/g/min
MCAO mice
  Infarct volume (% of the ipsilateral hemisphere): 18.7 ± 3.1%
